Results published in patent US20250304537A1 (Repare Therapeutics Inc., priority 2022, published 2025).
Like-named read-outs stand apart in the source and are kept apart here.

What was measured:
[1] = system: PKMYT1 (CDK1 pThr14) in FUOV1 cells; assay: PKMYT1 cell-based activity assay, CDK1 pThr14 AlphaLISA in FUOV1 cells; conditions: read-out: FUOV-1 CDK1 pThr14 IC50
In short: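 FUOV1 cells were treated with PKMYT1 inhibitor for 2 h at 37 °C, then lysed. CDK1 pThr14 was measured by AlphaLISA, pairing an anti-pThr14 antibody with an anti-total CDK1 antibody (5 nM each). Signal read at 680/615 nm and used to derive IC50.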

[2] = molecular target: recombinant human Myt1 (full length PKMYT1) (Homo sapiens (Human), UniProt Q99640); assay: Recombinant human Myt1 kinase assay (ADP-Glo); format: biochemical; conditions: 10 μM ATP
In short: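 Full-length insect-cell-expressed human Myt1 (18 nM final) was preincubated with compound (0.5% DMSO) for 15 min at 22 °C. The reaction ran with 10 μM ATP for 60 min at 30 °C in HEPES buffer with Mg2+/Mn2+ and DTT. ADP formed was read by ADP-Glo luminescence, giving IC50 and % max inhibition.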

Chain of recombinant human Myt1 (full length PKMYT1) (Q99640 whole entry): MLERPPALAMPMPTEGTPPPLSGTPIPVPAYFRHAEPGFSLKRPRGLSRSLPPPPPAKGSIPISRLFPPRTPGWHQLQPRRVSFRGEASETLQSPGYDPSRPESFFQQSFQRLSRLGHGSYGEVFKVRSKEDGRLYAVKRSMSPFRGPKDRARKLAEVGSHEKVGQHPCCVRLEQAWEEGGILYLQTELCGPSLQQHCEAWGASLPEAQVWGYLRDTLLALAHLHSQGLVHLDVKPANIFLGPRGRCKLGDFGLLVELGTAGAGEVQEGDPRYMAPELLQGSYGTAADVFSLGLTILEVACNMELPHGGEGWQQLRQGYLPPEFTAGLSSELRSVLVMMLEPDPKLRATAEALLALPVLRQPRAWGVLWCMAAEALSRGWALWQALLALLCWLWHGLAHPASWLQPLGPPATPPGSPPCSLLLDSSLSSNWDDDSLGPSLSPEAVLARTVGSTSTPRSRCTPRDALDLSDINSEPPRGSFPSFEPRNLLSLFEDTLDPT

Structure (SMILES) | IC50 ([1]; 2 h, 2 hours with compound) [nM] | IC50 [2] [nM] | IC50 ([1]; 2 h, 2 h compound incubation) [nM] | IC50 ([1]; 2 h, 2 h incubation) [nM] | IC50 ([1]; 2 h incubation) [nM]
Cc1ccc2[nH]ncc2c1-c1nc(-c2cc(Cl)ncc2NC2CCOCC2)nc(C(N)=O)c1N [Compound 839] | 22 | 4 |  |  | 
Cc1ccc2[nH]ncc2c1-c1nc(-c2cccnc2NC(C)(C)C2CCCO2)nc(C(N)=O)c1N (centres unmarked) [Compound 881] | 789 | < 3 |  |  | 
Cc1ccc2[nH]ncc2c1-c1nc(-c2ccccc2NC(=O)C2(C(F)(F)F)CC2)nc(C(N)=O)c1N [Compound 405] |  | 4 | 93 |  | 
Cc1ccc2[nH]ncc2c1-c1nc(-c2ccccc2N[C@H](C)C(F)(F)F)nc(C(N)=O)c1N [Compound 430] |  | 8 | 8 |  | 
CCOC(=O)Nc1ccccc1-c1nc(C(N)=O)c(N)c(-c2c(C)ccc3[nH]ncc23)n1 [Compound 473] |  | 8 | 48 |  | 
COC(C)(C)COc1nccc(-c2cc(-c3c(C)ccc4[nH]ncc34)c(N)c(C(N)=O)n2)n1 [Compound 327] |  | 6 |  | 351 | 
Cc1cccc(Nc2ncccc2-c2nc(C(N)=O)c(N)c(-c3c(C)ccc4[nH]ncc34)n2)n1 [Compound 626] |  | 5 | 530 |  | 
CC1(C(=O)Nc2cc(F)c(F)cc2-c2nc(C(N)=O)c(N)c(-c3c(Cl)ccc4[nH]ncc34)n2)CC1 [Compound 459] |  | 9 | 44 |  | 
CCC(COc1nccc(-c2cc(-c3c(C)ccc4[nH]ncc34)c(N)c(C(N)=O)n2)n1)OC (centres unmarked) [Compound 302] |  | 4 |  | 23 | 
COC[C@H](C)Oc1nccc(-c2cc(-c3c(C)ccc4[nH]ncc34)c(N)c(C(N)=O)n2)n1 [Compound 203] |  | 11 |  | 332 | 
Cc1ccc2[nH]ncc2c1-c1nc(-c2ccccc2NC(=O)C2(C)CC2(Cl)Cl)nc(C(N)=O)c1N (centres unmarked) [Compound 463] |  | 8 | 278 |  | 
Cc1ccc2[nH]ncc2c1-c1nc(-c2ccccc2NC(=O)[C@]2(C)CCCN2)nc(C(N)=O)c1N [Compound 422] |  | 19 | 373 |  | 
Cc1ccc2[nH]ncc2c1-c1nc(-c2ccccc2NC(=O)C(C)c2ccccc2)nc(C(N)=O)c1N (centres unmarked) [Compound 425] |  | 139 | > 10000 |  | 
Cc1ccc2[nH]ncc2c1-c1nc(-c2cccnc2NS(C)(=O)=O)nc(C(N)=O)c1N [Compound 804, 5-amino-6-(5-methyl-1H-indazol-4-yl)-2-(2-(methylsulfonamido)pyridin-3-yl)pyrimidine-4-carboxamide] | 62 | 8 |  |  | 
Cc1ccc(O)c(C)c1-c1cc(-c2cccc(C(F)(F)F)n2)nc(C(N)=O)c1N [Compound 60] |  | 11 |  | 1820 | 
Cc1ccc2[nH]ncc2c1-c1nc(-c2ccccc2NC(=O)C2(Cl)CC2)nc(C(N)=O)c1N [Compound 441] |  | 4 | 8 |  | 
Cc1ccc2[nH]ncc2c1-c1nc(-c2ccccc2NCC(F)F)nc(C(N)=O)c1N [Compound 400, 5-amino-2-(2-((2,2-difluoroethyl)amino)phenyl)-6-(5-methyl-1H-indazol-4-yl)pyrimidine-4-carboxamide] |  | 2 | 36 |  | 
COc1ccc(-c2cc(-c3c(C)ccc(O)c3C)c(N)c(C(N)=O)n2)nc1 [Compound 61] |  | 2 |  |  | 68
Cc1ccc2[nH]ncc2c1-c1cc(-c2ccnc(OCCOC3CC3)n2)nc(C(N)=O)c1N [Compound 205] |  | 6 |  | 181 | 
Cc1ccc2[nH]ncc2c1-c1nc(-c2cccnc2NC(=O)C(C)(C)C)c(F)c(C(N)=O)c1N [Compound 905, 5-amino-3-fluoro-6-(5-methyl-1H-indazol-4-yl)-2′-pivalamido-[2,3′-bipyridine]-4-carboxamide] | > 10000 | < 3 |  |  | 
Cc1ccc(O)c(C)c1-c1cc(-c2cccc(=O)[nH]2)nc(C(N)=O)c1N [Compound 72] |  | 10 |  | 77 | 
Cc1ccc(O)c(C)c1-c1cc(-c2ccc(C(F)(F)F)cc2)nc(C(N)=O)c1N [Compound 15] |  | 20 |  | 2520 | 
Cc1ccc2[nH]ncc2c1-c1nc(-c2ccccc2NS(=O)(=O)C2CC2)nc(C(N)=O)c1N [Compound 426] |  | 4 | 38 |  | 
Cc1ccc2[nH]ncc2c1-c1cc(-c2cnccn2)nc(C(N)=O)c1N [Compound 190] |  | 20 |  | 860 | 
Cc1ccncc1Nc1ncccc1-c1nc(C(N)=O)c(N)c(-c2c(C)ccc3[nH]ncc23)n1 [Compound 599] |  | 363 | 630 |  | 
Cc1ccc2[nH]ncc2c1-c1cc(-c2cncs2)nc(C(N)=O)c1N [Compound 85] |  | 22 |  | 1450 | 
Cc1ccc2[nH]ncc2c1-c1cc(-c2cccc(OC3CCCOC3)n2)nc(C(N)=O)c1N (centres unmarked) [Compound 306] |  | 7 |  | 449 | 
Cc1ccc(O)c(C)c1-c1cc(-c2nccs2)nc(C(N)=O)c1N [Compound 13, 3-amino-4-(3-hydroxy-2,6-dimethylphenyl)-6-(thiazol-2-yl)picolinamide] |  | < 3.5 |  | 64 | 

Structure (SMILES) | IC50 ([1]; 2 h, 2 hours with compound) [nM] | IC50 [2] [nM] | IC50 ([1]; 2 h, 2 h compound incubation) [nM] | IC50 ([1]; 2 h, 2 h incubation) [nM] | IC50 ([1]; 2 h incubation) [nM]
Cc1ccc2[nH]ncc2c1-c1nc(-c2ccccc2NC(=O)C(C)(C)C)nc(C(N)=O)c1N [Compound 377] |  | 3 |  | 21 | 
Cc1ccc2[nH]ncc2c1-c1cc(-c2ccnc(O[C@H]3CO[C@H]4OCC[C@H]43)n2)nc(C(N)=O)c1N [Compound 208] |  | 6 |  | 106 | 
Cc1ccc2[nH]ncc2c1-c1nc(-c2ccc(F)cc2Nc2ccnc(C(C)C)c2)nc(C(N)=O)c1N [Compound 619] |  | 6 | 277 |  | 
CC(=O)Nc1ccccc1-c1nc(C(N)=O)c(N)c(-c2c(C)ccc3[nH]ncc23)n1 [Compound 320] |  | 6 |  | 19 | 
Cc1ccc2[nH]ncc2c1-c1cc(-c2ccnc(OCc3cccnc3)n2)nc(C(N)=O)c1N [Compound 164] |  | 14 |  | 473 | 
Cc1ccc2[nH]ncc2c1-c1cc(-c2cccc(OC[C@H](N)c3ccccc3)n2)nc(C(N)=O)c1N [Compound 276] |  | 2 |  |  | 11
COCCNc1ccccc1-c1nc(C(N)=O)c(N)c(-c2c(C)ccc3[nH]ncc23)n1 [Compound 464] |  | 3 | 370 |  | 
Cc1ccc2[nH]ncc2c1-c1cc(-c2ccnc(Oc3cccnc3)n2)nc(C(N)=O)c1N [Compound 199] |  | 6 |  | 137 | 
Cc1ccc2[nH]ncc2c1-c1nc(-c2cccnc2NCC(F)F)nc(C(N)=O)c1N [Compound 625] |  | 5 | 42 |  | 
Cc1ccc2[nH]ncc2c1-c1nc(-c2ccccc2NC(=O)[C@@]2(C)CCCN2)nc(C(N)=O)c1N [Compound 431] |  | 8 | 5 |  | 
Cc1ccc2[nH]ncc2c1-c1nc(-c2ccccc2NC(=O)C2CC(C)(C)C2)nc(C(N)=O)c1N [Compound 417] |  | 18 | 899 |  | 
NC(=O)c1nc(-c2ccccn2)cc(-c2cccc3[nH]ncc23)c1N [Compound 70] |  | 29 |  | 1470 | 
Cc1ccc(O)c(C)c1-c1cc(-c2ccns2)nc(C(N)=O)c1N [Compound 38] |  | 3 |  | 60 | 
Cc1ccc2[nH]ncc2c1-c1cc(-c2ccccn2)nc(C(N)=O)c1N [Compound 87] |  | 11 |  | 567 | 
Cc1ccc2[nH]ncc2c1-c1nc(-c2cccnc2Nc2ccnn2C2CC2)nc(C(N)=O)c1N [Compound 885] | > 10000 | 176 |  |  | 
Cc1ccc2[nH]ncc2c1-c1nc(-c2ccc(Cl)cc2NC(=O)C2(C)CC2)nc(C(N)=O)c1N [Compound 438] |  | 4 | 17 |  | 
Cc1ccc2[nH]ncc2c1-c1nc(-c2cc(F)c(F)cc2NC2CC(F)(F)C2)nc(C(N)=O)c1N [Compound 475] |  | 14 | 138 |  | 
Cc1nnc(-c2cccc(-c3nc(C(N)=O)c(N)c(-c4c(C)ccc5[nH]ncc45)n3)c2)o1 [Compound 290] |  | 6 |  | 167 | 
Cc1ccc2[nH]ncc2c1-c1cc(-c2ccnc(OCCc3nccs3)n2)nc(C(N)=O)c1N [Compound 313] |  | 6 |  | 137 | 
Cc1ccc2[nH]ncc2c1-c1cc(-c2cccc(OCc3ncco3)n2)nc(C(N)=O)c1N [Compound 267] |  | 4 |  |  | 191
Cc1ccc(O)c(C)c1-c1cc(-c2ncccn2)cc(C(N)=O)c1N [Compound 78] |  | 9 |  | 326 | 
Cc1ccc2[nH]ncc2c1-c1nc(-c2cccc3cn[nH]c23)nc(C(N)=O)c1N [Compound 323] |  | 6 |  | 108 | 
Cc1ccc(O)c(C)c1-c1cc(-c2cccc(N3CCOCC3)c2)nc(C(N)=O)c1N [Compound 42] |  | 7 |  | 169 | 
COc1ccc(-c2nc(C(N)=O)c(N)c(-c3c(C)ccc4[nH]ncc34)n2)c(NC(=O)C2(C)CC2)c1 [Compound 455] |  | 6 | 21 |  | 
Cc1ccc2[nH]ncc2c1-c1cc(-c2cccc(OCc3ncccn3)n2)nc(C(N)=O)c1N [Compound 184] |  | 6 |  | 51 | 
Cc1nccc(Nc2cc(F)ccc2-c2nc(C(N)=O)c(N)c(-c3c(C)ccc4[nH]ncc34)n2)n1 [Compound 525] |  | 5 | 19 |  | 
Cc1ccc2[nH]ncc2c1-c1nc(-c2cccnc2NCC2CCCCO2)nc(C(N)=O)c1N (centres unmarked) [Compound 604] |  | 16 | 794 |  | 
